In US11958865B1, “Leucine-rich repeat kinase 2 (LRRK2) inhibitors” (H. Lundbeck A/S, priority 2022, dated 2024):
Like-named read-outs stand apart in the source and are kept apart here.

Key:
[1] = Hepatocyte intrinsic clearance assay; format: in vitro ADME, Human; conditions: pooled donor, cryopreserved hepatocytes, pH 7.4; human hepatocytes 1×10^6/mL; 0.05 μM; 2 h at 37° C.
Method: Test compounds (final concentration 0.05 μM, 0.05% organic) were incubated for 2 h at 37° C., with shaking, in supplemented Leibovitz L-15 media (pH 7.4) containing commercially sourced, pooled donor, cryopreserved hepatocytes (final concentration 1×10^6 hepatocytes/mL). The CLint reactions (350 μL) were initiated by addition of test compound. Aliquots (25 μL) were taken at 1, 5, 10, 15, 30, 60, 90 and 120 minutes and then protein crashed with ice-cold acetonitrile containing internal standard (150 μL) then centrifuged (1960 g for 20 minutes at 4° C.). Supernatant was diluted (1:4) with deionized water then analyzed by liquid chromatography (LC)-tandem mass spectrometry (MS/MS).

[2] = Hepatic microsomal intrinsic clearance assay; format: in vitro ADME; conditions: liver microsomes 0.5 mg/mL, 1 μM, NADPH, 1 hour at 37° C., LLOQ 0.36 L/h/kg; for CLint scaled at 1 μM: pooled liver microsomes, pH 7.4
Method: Compounds (final concentration 1 μM, 1% organic) of the invention were incubated for 1 hour at 37° C., with shaking, in phosphate buffer (pH 7.4) containing commercially sourced pooled liver microsomes (final concentration 0.5 mg/mL). […] At designated time points (0, 5, 10, 20, 30 and 60 minutes) ice-cold acetonitrile containing internal standard (300 μL) was added to an incubation well to stop the reaction then mixed and centrifuged (3220 g for 20 minutes at 4° C.). Supernatant was diluted (1:4) with deionized water then analyzed by LC-MS/MS.

[3] = Rat brain disposition after oral gavage; format: in vivo, male Sprague-Dawley rats; conditions: male, Sprague-Dawley, oral 5 mg/kg, mean ± stdev
Method: Brain disposition was evaluated in male Sprague-Dawley rats (n=3, standard body weight). Briefly, test compound was formulated as a simple suspension (0.5% HPMC in water) then administered by oral gavage (10 mg/kg, 10 mL/kg or 5 mg/kg, 10 mL/kg). At the designated time point (0.5 or 1 h post dose) rats were sacrificed and terminal blood and brain samples taken. Isolated plasma and brain homogenates were extracted by standard protein precipitation in acetonitrile, containing internal standard. Diluted extracts were analyzed by liquid-chromatography coupled with tandem mass spectrometry detection (LC-MS/MS) using a bioanalytical method. Concentrations of test compound in plasma and brain were quantified against matrix matched calibration standards. The total plasma and brain concentration time data are presented in Table 4 alongside the calculated brain Kp (total brain concentration:total plasma concentration ratio).
The total brain-to-plasma partition coefficient (brain Kp) is given by the ratio of the total brain concentration and total plasma concentration of the compound according to the equation below: […]
Based on the measured rat fuplasma and fubrain values and the brain Kp the unbound brain-to-plasma partition coefficient (brain Kp,uu for each compound was calculated. The Kp,uu parameter describes the extent of brain penetration for each compound, i.e. the parameter gives a direct quantitative description of how the blood-brain barrier (BBB) handles the compounds regarding passive transport and active influx/efflux. The brain Kp,uu is given by the equation below: […]

[4] = Fraction unbound in rat plasma and brain homogenate by equilibrium dialysis; format: in vitro ADME, male Sprague-Dawley rat; conditions: 1 μM, equilibrium dialysis 5 h at 37° C.; for fubrain (% free): rat brain homogenate; for fuplasma (% free): rat plasma
Method: The fraction of unbound compound in male Sprague-Dawley rat plasma (fuplasma) and brain homogenate (fubrain) were determined by equilibrium dialysis using 96-well HTD-dialysis plates with dialysis membranes (molecular weight cut off 12-14 KDa). One side of the HTD-dialysis plate was loaded with matrix (plasma or brain homogenate) and the other side with buffer (100 mM sodium phosphate buffer, pH 7.4). Test compounds were dissolved in DMSO then spiked (5 μL of 0.2 mM) into blank (995 μL) plasma or diluted brain homogenate (1:4 ratio in phosphate buffer) giving a final nominal concentration 1 μM (≤0.5% DMSO). The matrices were loaded into respective chambers and equilibrated against phosphate buffer for 5 h at 37° C. (in a humidified air incubator with 5% CO2 with shaking). Samples from both chambers (buffer and plasma or brain homogenate) were aliquoted to fresh 96-well polypropylene plates then matrix matched using an equal volume of opposite blank matrix before extraction with cold solvent (3 volumes acetonitrile) containing an appropriate bioanalytical internal standard. After centrifugation (20 min, 3200 g, 4° C.) the supernatants were diluted with appropriate volumes of water and compound concentrations were quantified by LC/MS-MS against matrix matched calibration standards. The fuplasma and fubrain were calculated according to equation 4 below.
[formula] Where [F] is the compound concentration on the buffer (receiver) side of the membrane; [T] is the compound concentration on the plasma or brain (donor) side of the membrane; D is the matrix dilution factor which is determined as D=4 for brain matrix and D=1 for plasma matrix in these assays.

[5] = brain, n=3, read-out: Total brain concentration
[6] = plasma, n=3, read-out: Total plasma concentration

Structure (SMILES): [2H]C([2H])([2H])c1c2c(nn1-c1cc(F)cnc1OC)OCCCn1nc(Cl)c3cnc(nc31)N2 (single isomer, unassigned) [Example 29, 8-Chloro-2-(5-fluoro-2-methoxypyridin-3-yl)-3-(methyl-d3)-2,4,12,13-tetrahydro-11H-5,7-(azenometheno)dipyrazolo[3,4-b:5′,1′-g][1]oxa[4,6,8]triazacycloundecine]
- CLint scaled at 0.05 μM [1]: 0.93 L/h/kg
- CLint scaled at 1 μM [2]: 1.28 L/h/kg

Structure (SMILES): Cc1ncccc1-n1nc2c(c1C)Nc1ncc3c(Cl)nn(c3n1)CCCO2 [Example 3, 8-Chloro-3-methyl-2-(2-methylpyridin-3-yl)-2,4,12,13-tetrahydro-11H-5,7-(azenometheno)dipyrazolo[3,4-b:5′,1′-g][1]oxa[4,6,8]triazacycloundecine]
- CLint scaled at 0.05 μM [1]: 0.36 L/h/kg
- Kp at 0.5 h ([3]; brain, 0.5 h, n=3): 1.1 ± 0.1
- Kp uu at 0.5 h ([3]; brain, 0.5 h, n=3): 0.52 ± 0.06
- concentration at 0.5 h ([3]; brain, 0.5 h, n=3, read-out: Total brain concentration): 414 ± 97 ng/g
- concentration at 0.5 h ([3]; plasma, 0.5 h, n=3, read-out: Total plasma concentration): 0.362 ± 0.038 µg/mL
- fubrain (% free) [4]: 10.4 % free
- fuplasma (% free) [4]: 22.6 % free
- CLint scaled at 1 μM [2]: 0.43 L/h/kg

Structure (SMILES): COc1ncc(F)cc1-n1nc2c(c1C)Nc1ncc3c(Cl)nn(c3n1)CCCO2 [Example 6, 8-Chloro-2-(5-fluoro-2-methoxypyridin-3-yl)-3-methyl-2,4,12,13-tetrahydro-11H-5,7-(azenometheno)dipyrazolo[3,4-b:5′,1′-g][1]oxa[4,6,8]triazacycloundecine]
- CLint scaled at 0.05 μM [1]: 0.86 L/h/kg
- Kp at 1 h ([3]; brain, n=3): 3 ± 0.06
- Kp uu at 1 h ([3]; brain, n=3): 1.22 ± 0.03
- concentration at 1 h [3, 5]: 205 ± 21 ng/g
- concentration at 1 h [3, 6]: 0.069 ± 0.007 µg/mL
- fubrain (% free) [4]: 3.7 % free
- fuplasma (% free) [4]: 8.9 % free
- CLint scaled at 1 μM [2]: 1.26 L/h/kg

Structure (SMILES): Cc1ccc(-n2nc3c(c2C)Nc2ncc4c(Cl)nn(c4n2)CCCO3)c(C)n1 [Example 9, 8-Chloro-2-(2,6-dimethylpyridin-3-yl)-3-methyl-2,4,12,13-tetrahydro-11H-5,7-(azenometheno)dipyrazolo[3,4-b:5′,1′-g][1]oxa[4,6,8]triazacycloundecine]
- CLint scaled at 0.05 μM [1]: 0.97 L/h/kg
- Kp at 1 h ([3]; brain, n=3): 1.4 ± 0.2
- Kp uu at 1 h ([3]; brain, n=3): 1 ± 0.12
- concentration at 1 h [3, 5]: 906 ± 87 ng/g
- concentration at 1 h [3, 6]: 0.664 ± 0.047 µg/mL
- fubrain (% free) [4]: 7.4 % free
- fuplasma (% free) [4]: 10.2 % free
- Hepatic microsomal CLint (L/h/kg) [2]: BQL**

Structure (SMILES): Cc1ncc(F)cc1-n1nc2c(c1C)Nc1ncc3c(Cl)nn(c3n1)CCCO2 [Example 10, 8-Chloro-2-(5-fluoro-2-methylpyridin-3-yl)-3-methyl-2,4,12,13-tetrahydro-11H-5,7-(azenometheno)dipyrazolo[3,4-b:5′,1′-g][1]oxa[4,6,8]triazacycloundecine]
- CLint scaled at 0.05 μM [1]: 0.33 L/h/kg
- Kp at 1 h ([3]; brain, n=3): 2.2 ± 0.3
- Kp uu at 1 h ([3]; brain, n=3): 0.89 ± 0.14
- concentration at 1 h [3, 5]: 524 ± 79 ng/g
- concentration at 1 h [3, 6]: 0.246 ± 0.061 µg/mL
- fubrain (% free) [4]: 9.3 % free
- fuplasma (% free) [4]: 22.7 % free
- CLint scaled at 1 μM [2]: 1.2 L/h/kg

Structure (SMILES): Cc1cnc(C)c(-n2nc3c(c2C)Nc2ncc4c(Cl)nn(c4n2)CCCO3)c1 [Example 11, 8-Chloro-2-(2,5-dimethylpyridin-3-yl)-3-methyl-2,4,12,13-tetrahydro-11H-5,7-(azenometheno)dipyrazolo[3,4-b:5′,1′-g][1]oxa[4,6,8]triazacycloundecine]
- CLint scaled at 0.05 μM [1]: < 0.24 L/h/kg
- Kp at 1 h ([3]; brain, n=3): 1.1 ± 0.2
- Kp uu at 1 h ([3]; brain, n=3): 0.51 ± 0.07
- concentration at 1 h [3, 5]: 649 ± 99 ng/g
- concentration at 1 h [3, 6]: 0.586 ± 0.082 µg/mL
- fubrain (% free) [4]: 5.3 % free
- fuplasma (% free) [4]: 11.7 % free
- CLint scaled at 1 μM [2]: 0.74 L/h/kg

Structure (SMILES): [2H]C([2H])([2H])c1c2c(nn1-c1ccc(C)nc1C)OCCCn1nc(Cl)c3cnc(nc31)N2 [Example 25, 8-Chloro-2-(2,6-dimethylpyridin-3-yl)-3-(methyl-d3)-2,4,12,13-tetrahydro-11H-5,7-(azenometheno)dipyrazolo[3,4-b:5′,1′-g][1]oxa[4,6,8]triazacycloundecine]
- CLint scaled at 0.05 μM [1]: 1.19 L/h/kg
- CLint scaled at 1 μM [2]: < 0.36 L/h/kg
